Non-standard residues stand in square brackets, D forms with d. Primed or numbered codes have the meaning given here. No end group written: not given here. Ida = iminodiacetic acid linker, its two carboxyls bind the Lys side-chain amines of two peptides, giving a homodimer; Ida(3) = iminodiacetic acid linker, Lys side-chain amines bound to its two carboxyl groups; Ida″ = iminodiacetic acid linker bound to the Lys side-chain amine, forming a dimer; Phg = N[C@H](C(=O)O)c1ccccc1; Ahx = NCCCCCC(=O)O
System: HUVECs
Format: cell-based
Details: HUVEC proliferation, bFGF at 10 ng/ml or VEGF at 5 ng/ml, 48 hours, BrdU incorporation; read-out: IC50 on HUVECs
Procedure: HUVECs were routinely cultured to near confluency in EGM media (Clontech, Mountain View, California). The cells were trypsinized and plated in a 96-well plate at 5,000 cells per well per 100 μl EBM supplemented with 2% FCS and antibiotics. The cells were allowed to adhere to the plate for at least 12 hours. Then, bFGF at 10 ng/ml or VEGF at 5 ng/ml, and various concentrations of peptide, were added to the wells. The cells were cultured for 48 hours at 37 ° C. in a 5% CO2 atmosphere. Cell proliferation was determined using a bromo-deoxyuridine (BrdU) incorporation method as described by the manufacturer. Inhibition of cell proliferation was assessed by BrdU incorporation.

“173 (Ac-ARRRRQRVRIIF; also: homodimer: C-terminal Phe12 of each chain bound to one amino group of a Lys linker) [compound 173]” and “285 (Ac-RRRRHQAVHIYFK-NH2; not fully specified (residue 13); also: homodimer via Ida linker on Lys13 side chain) [compound 285]” cannot be ordered by IC50: under 10 µM for the first, under 10 µM for the second.

First: 205 (Ac-RRARRQRVAIIF; also: dimer: Phe C-termini joined via Lys linker) [compound 205]
Second: 361 (Ac-ARRRRQRVAIYFK; not fully specified) [compound 361]
The IC50 of the first is lower: under 10 µM for the first, over 30 µM for the second. The first is the more potent here.

Compared with “374 (Ac-ARRRRQRVA[Phg]YFK(Ida(3))-NH2; also: homodimer via Ida linker on Lys13 side chain, Boc on Ida amine) [compound 374]”, “496 (Ac-PRHRRQAVAIYFK(Ida″); not fully specified (C-terminus); also: homodimer via Ida linker on Lys13 side chain) [compound 496]” is higher in IC50: under 10 µM for the first, 10 to 30 µM for the second.

“274 (Ac-RARRRQAVAIWFK-NH2; not fully specified (residue 13); also: homodimer via Ida linker on Lys13 side chain) [compound 274]” and “278 (Ac-RRRRRQHVHIYFK-NH2; not fully specified (residue 13); also: homodimer: Lys13 side chain bound to Ida linker) [compound 278]” cannot be ordered by IC50: under 10 µM for the first, under 10 µM for the second.

Going from “262 (Ac-AR[dR]RRQRVAIIFK-NH2; not fully specified (residue 13); also: homodimer via Ida linker on Lys13 side chains) [compound 262]” to KTKRKRKKQRVKIAYEEIM [compound 42], the IC50 rises from under 10 µM to over 30 µM.

First: 272 (Ac-RARRRQAVAINFK-NH2; not fully specified (residue 13); also: homodimer via Ida linker on Lys13 side chain) [compound 272]
Second: 478 (Ac-PRRRTQAVAIYFK(Ida(3)); not fully specified (C-terminus); also: homodimer via Ida linker on Lys13 side chain) [compound 478]
The IC50 of the first is lower: under 10 µM for the first, 10 to 30 µM for the second. The first is the more potent here.

Compared with KRKRKKQRVKIIF [compound 81], “129 (TKRKRKKQRVKI[Ahx][Ahx]IF; also: dimer: C-terminus of Phe16 of each chain bound to one amino group of a Lysine linker) [compound 129]” is lower in IC50: 10 to 30 µM for the first, under 10 µM for the second. The second is the more potent here.

“307 (Ac-RRRRRQAVRK(Ida)IFV; also: homodimer via Ida linker on Lys10 side chain) [compound 307]” and “398 (Ac-ARRRRQAVLIYFK; not fully specified (residue 13, C-terminus); also: homodimer of residues 1-13 via Ida linker at Lys13 side chain) [compound 398]” cannot be ordered by IC50: under 10 µM for the first, under 10 µM for the second.

“459 (Ac-KRRRRQAVAIYF; not fully specified (residue 1); also: homodimer via Ida linker on Lys side chains, linker at 1 via Ida, other end not in the chain) [compound 459]” and “268 (Ac-ARRRRQRVAIPFK-NH2; not fully specified (residue 13); also: homodimer: side chain of Lys13 bound to an Ida linker) [compound 268]” cannot be ordered by IC50: over 30 µM for the first, over 30 µM for the second.

Compared with “328 (XRHRRQHVRIYFK; not fully specified; Xaa = Acylated Histidine; The side chain of Lysine at position 13 is covalently bound to an Ida linker forming a homodimer of residues 1 through 13.) [compound 328]”, KAARKRKKQRVKIAYEEIFVQNM [compound 56] is higher in IC50: under 10 µM for the first, 10 to 30 µM for the second.
